{
  "source": "ChEMBL document CHEMBL3885881",
  "about": "“DrugMatrix”",
  "species": "Rattus norvegicus",
  "assay": "DrugMatrix - Regimen: Daily Repeat",
  "type": "toxicity, organism-based, Sprague-Dawley",
  "set-up": "regimen Daily Repeat, gender Male, age 6-8 weeks",
  "settings": "in vivo, sc, 0.4 mg/kg, route subcutaneous, dose level Low, […]; for ABSOLUTE BASOPHIL / ABSOLUTE EOSINOPHIL / ABSOLUTE LYMPHOCYTE / ABSOLUTE MONOCYTE / ABSOLUTE SEGMENTED NEUTROPHIL / BASOPHIL / EOSINOPHIL / ERYTHROCYTE COUNT / HEMATOCRIT / HEMOGLOBIN / LEUKOCYTE COUNT / LYMPHOCYTE / MEAN CORPUSCULAR HEMOGLOBIN / MEAN CORPUSCULAR HEMOGLOBIN CONCENTRATION / MEAN CORPUSCULAR VOLUME / MONOCYTE / NEUTROPHIL / NUCLEATED RED BLOOD CELLS / PLATELET COUNT: tissue Blood; for ALANINE AMINOTRANSFERASE / ALBUMIN / ALKALINE PHOSPHATASE / ASPARTATE AMINOTRANSFERASE / BLOOD UREA NITROGEN / CARBON DIOXIDE / CHLORIDE / CHOLESTEROL / CREATINE PHOSPHOKINASE / CREATININE / GLUCOSE / LACTATE DEHYDROGENASE / LIPASE / PHOSPHORUS / POTASSIUM / SODIUM / TOTAL BILIRUBIN / TOTAL PROTEIN / URIC ACID: tissue Plasma",
  "data": [
    {"smiles": "COc1cc([C@@H]2c3cc4c(cc3[C@H](O)[C@H]3COC(=O)[C@H]23)OCO4)cc(OC)c1OC", "note": "[PODOFILOX]", "values": [
      {"measurement": "ABSOLUTE BASOPHIL", "setting": "72 h, time 3 day", "value": 0, "unit": "CELLS/uL"},
      {"measurement": "ABSOLUTE EOSINOPHIL", "setting": "72 h, time 3 day", "value": 46.67, "unit": "CELLS/uL"},
      {"measurement": "ABSOLUTE LYMPHOCYTE", "setting": "72 h, time 3 day", "value": 10326.67, "unit": "CELLS/uL"},
      {"measurement": "ABSOLUTE MONOCYTE", "setting": "72 h, time 3 day", "value": 246, "unit": "CELLS/uL"},
      {"measurement": "ABSOLUTE SEGMENTED NEUTROPHIL", "setting": "72 h, time 3 day", "value": 1114, "unit": "CELLS/uL"},
      {"measurement": "BASOPHIL", "setting": "72 h, time 3 day", "value": 0, "unit": "%"},
      {"measurement": "EOSINOPHIL", "setting": "72 h, time 3 day", "value": 0.33, "unit": "%"},
      {"measurement": "ERYTHROCYTE COUNT", "setting": "72 h, time 3 day", "value": 5.36, "unit": "x10E6/uL"},
      {"measurement": "HEMATOCRIT", "setting": "72 h, time 3 day", "value": 33.43, "unit": "%"},
      {"measurement": "HEMOGLOBIN", "setting": "72 h, time 3 day", "value": 12.37, "unit": "G/DL"},
      {"measurement": "LEUKOCYTE COUNT", "setting": "72 h, time 3 day", "value": 11.73, "unit": "x10E3/uL"},
      {"measurement": "LYMPHOCYTE", "setting": "72 h, time 3 day", "value": 88.33, "unit": "%"},
      {"measurement": "MEAN CORPUSCULAR HEMOGLOBIN", "setting": "72 h, time 3 day", "value": 23.07, "unit": "pg"},
      {"measurement": "MEAN CORPUSCULAR HEMOGLOBIN CONCENTRATION", "setting": "72 h, time 3 day", "value": 37, "unit": "G/DL"},
      {"measurement": "MEAN CORPUSCULAR VOLUME", "setting": "72 h, time 3 day", "value": 62.43, "unit": "fL"},
      {"measurement": "MONOCYTE", "setting": "72 h, time 3 day", "value": 2, "unit": "%"},
      {"measurement": "NEUTROPHIL", "setting": "72 h, time 3 day", "value": 9.33, "unit": "%"},
      {"measurement": "NUCLEATED RED BLOOD CELLS", "setting": "72 h, time 3 day", "value": "0 /100WBC"},
      {"measurement": "PLATELET COUNT", "setting": "72 h, time 3 day", "value": 1280.67, "unit": "x10E3/uL"},
      {"measurement": "ALANINE AMINOTRANSFERASE", "setting": "72 h, time 3 day", "value": 44.33, "unit": "u/L"},
      {"measurement": "ALBUMIN", "setting": "72 h, time 3 day", "value": 3.33, "unit": "G/DL"},
      {"measurement": "ALKALINE PHOSPHATASE", "setting": "72 h, time 3 day", "value": 320.67, "unit": "u/L"},
      {"measurement": "ASPARTATE AMINOTRANSFERASE", "setting": "72 h, time 3 day", "value": 77.67, "unit": "u/L"},
      {"measurement": "BLOOD UREA NITROGEN", "setting": "72 h, time 3 day", "value": 16.33, "unit": "mg/dL"},
      {"measurement": "CARBON DIOXIDE", "setting": "72 h, time 3 day", "value": 27.33, "unit": "mmol/L"},
      {"measurement": "CHLORIDE", "setting": "72 h, time 3 day", "value": 104.67, "unit": "MEQ/L"},
      {"measurement": "CHOLESTEROL", "setting": "72 h, time 3 day", "value": 67.33, "unit": "mg/dL"},
      {"measurement": "CREATINE PHOSPHOKINASE", "setting": "72 h, time 3 day", "value": 222.67, "unit": "u/L"},
      {"measurement": "CREATININE", "setting": "72 h, time 3 day", "value": 0.2, "unit": "mg/dL"},
      {"measurement": "GLUCOSE", "setting": "72 h, time 3 day", "value": 162, "unit": "mg/dL"},
      {"measurement": "LACTATE DEHYDROGENASE", "setting": "72 h, time 3 day", "value": 146.67, "unit": "u/L"},
      {"measurement": "LIPASE", "setting": "72 h, time 3 day", "value": 8, "unit": "u/L"},
      {"measurement": "PHOSPHORUS", "setting": "72 h, time 3 day", "value": 12.87, "unit": "mg/dL"},
      {"measurement": "POTASSIUM", "setting": "72 h, time 3 day", "value": 6.48, "unit": "MEQ/L"},
      {"measurement": "SODIUM", "setting": "72 h, time 3 day", "value": 146.23, "unit": "MEQ/L"},
      {"measurement": "TOTAL BILIRUBIN", "setting": "72 h, time 3 day", "value": 0.2, "unit": "mg/dL"},
      {"measurement": "TOTAL PROTEIN", "setting": "72 h, time 3 day", "value": 5.23, "unit": "G/DL"},
      {"measurement": "URIC ACID", "setting": "72 h, time 3 day", "value": 1.53, "unit": "mg/dL"},
      {"measurement": "ABSOLUTE BASOPHIL", "setting": "120 h, time 5 day", "value": 0, "unit": "CELLS/uL"},
      {"measurement": "ABSOLUTE EOSINOPHIL", "setting": "120 h, time 5 day", "value": 0, "unit": "CELLS/uL"},
      {"measurement": "ABSOLUTE LYMPHOCYTE", "setting": "120 h, time 5 day", "value": 4413.33, "unit": "CELLS/uL"},
      {"measurement": "ABSOLUTE MONOCYTE", "setting": "120 h, time 5 day", "value": 17.67, "unit": "CELLS/uL"},
      {"measurement": "ABSOLUTE SEGMENTED NEUTROPHIL", "setting": "120 h, time 5 day", "value": 1569, "unit": "CELLS/uL"},
      {"measurement": "BASOPHIL", "setting": "120 h, time 5 day", "value": 0, "unit": "%"},
      {"measurement": "EOSINOPHIL", "setting": "120 h, time 5 day", "value": 0, "unit": "%"},
      {"measurement": "ERYTHROCYTE COUNT", "setting": "120 h, time 5 day", "value": 5.41, "unit": "x10E6/uL"},
      {"measurement": "HEMATOCRIT", "setting": "120 h, time 5 day", "value": 33.67, "unit": "%"},
      {"measurement": "HEMOGLOBIN", "setting": "120 h, time 5 day", "value": 12.57, "unit": "G/DL"},
      {"measurement": "LEUKOCYTE COUNT", "setting": "120 h, time 5 day", "value": 6, "unit": "x10E3/uL"},
      {"measurement": "LYMPHOCYTE", "setting": "120 h, time 5 day", "value": 73.67, "unit": "%"},
      {"measurement": "MEAN CORPUSCULAR HEMOGLOBIN", "setting": "120 h, time 5 day", "value": 23.23, "unit": "pg"},
      {"measurement": "MEAN CORPUSCULAR HEMOGLOBIN CONCENTRATION", "setting": "120 h, time 5 day", "value": 37.33, "unit": "G/DL"},
      {"measurement": "MEAN CORPUSCULAR VOLUME", "setting": "120 h, time 5 day", "value": 62.3, "unit": "fL"},
      {"measurement": "MONOCYTE", "setting": "120 h, time 5 day", "value": 0.33, "unit": "%"},
      {"measurement": "NEUTROPHIL", "setting": "120 h, time 5 day", "value": 26, "unit": "%"},
      {"measurement": "NUCLEATED RED BLOOD CELLS", "setting": "120 h, time 5 day", "value": "0.67 /100WBC"},
      {"measurement": "PLATELET COUNT", "setting": "120 h, time 5 day", "value": 1853.33, "unit": "x10E3/uL"},
      {"measurement": "ALANINE AMINOTRANSFERASE", "setting": "120 h, time 5 day", "value": 44.33, "unit": "u/L"},
      {"measurement": "ALBUMIN", "setting": "120 h, time 5 day", "value": 4.03, "unit": "G/DL"},
      {"measurement": "ALKALINE PHOSPHATASE", "setting": "120 h, time 5 day", "value": 296.33, "unit": "u/L"},
      {"measurement": "ASPARTATE AMINOTRANSFERASE", "setting": "120 h, time 5 day", "value": 117, "unit": "u/L"},
      {"measurement": "BLOOD UREA NITROGEN", "setting": "120 h, time 5 day", "value": 19.33, "unit": "mg/dL"},
      {"measurement": "CARBON DIOXIDE", "setting": "120 h, time 5 day", "value": 26, "unit": "mmol/L"},
      {"measurement": "CHLORIDE", "setting": "120 h, time 5 day", "value": 105.67, "unit": "MEQ/L"},
      {"measurement": "CHOLESTEROL", "setting": "120 h, time 5 day", "value": 82.67, "unit": "mg/dL"},
      {"measurement": "CREATINE PHOSPHOKINASE", "setting": "120 h, time 5 day", "value": 843.33, "unit": "u/L"},
      {"measurement": "CREATININE", "setting": "120 h, time 5 day", "value": 0.2, "unit": "mg/dL"},
      {"measurement": "GLUCOSE", "setting": "120 h, time 5 day", "value": 187.33, "unit": "mg/dL"},
      {"measurement": "LACTATE DEHYDROGENASE", "setting": "120 h, time 5 day", "value": 167.67, "unit": "u/L"},
      {"measurement": "LIPASE", "setting": "120 h, time 5 day", "value": 8.67, "unit": "u/L"},
      {"measurement": "PHOSPHORUS", "setting": "120 h, time 5 day", "value": 11.4, "unit": "mg/dL"},
      {"measurement": "POTASSIUM", "setting": "120 h, time 5 day", "value": 6.97, "unit": "MEQ/L"},
      {"measurement": "SODIUM", "setting": "120 h, time 5 day", "value": 148.4, "unit": "MEQ/L"},
      {"measurement": "TOTAL BILIRUBIN", "setting": "120 h, time 5 day", "value": 0.1, "unit": "mg/dL"},
      {"measurement": "TOTAL PROTEIN", "setting": "120 h, time 5 day", "value": 6.7, "unit": "G/DL"},
      {"measurement": "URIC ACID", "setting": "120 h, time 5 day", "value": 2.73, "unit": "mg/dL"}
    ]}
  ]
}
